# Measured values as given in patent publication US8889874B2, “Imidazolone-chalcone derivatives as potential anticancer agent and process for the preparation thereof” (Council of Scientific and Industrial Research, priority 2010, dated 2014).
# Assays:
# Assay in all cases: NCI anticancer screen, SRB assay, 48 h
# Type in all cases: cell-based, human
# MDA-MB-231/ATCC (breast) = tested on: MDA-MB-231/ATCC (breast)
# Method: (§1) Some of biological activity studies were carried out at the National Cancer Institute (NCI), Maryland, USA.
# (§2) The compounds were evaluated for anticancer activity against fifty three human cancer cells derived from nine cancer types (leukemia cell line, non-small-cell lung cell line, colon cell line, CNS cell line, melanoma cell line, ovarian cell line, prostate cell line, and breast cancer cell line) as shown in Table 1. For each compound, dose response curves for each cell line were measured at a minimum of five concentrations at 10 fold dilutions. A protocol of 48 h continuous drug exposure was used and a sulforhodamine B (SRB) protein assay was used to estimate cell viability or growth.
# [1] = tested on: NCI-H226 (non-small cell lung)
# Method: as §1, §2
# TD-47D (breast) = tested on: TD-47D (breast)
# Method: as §1, §2
# SF-268 (CNS) = tested on: SF-268 (CNS)
# Method: as §1, §2
# OVCAR-8 (ovarian) = tested on: OVCAR-8 (ovarian)
# Method: as §1, §2
# LOX IMVI (melanoma) = tested on: LOX IMVI (melanoma)
# Method: as §1, §2
# [2] = tested on: NCI-H522 (non-small cell lung)
# Method: as §1, §2
# CAKI-1 (renal) = tested on: CAKI-1 (renal)
# Method: as §1, §2
# HT29 (colon) = tested on: HT29 (colon)
# Method: as §1, §2
# HS 578T (breast) = tested on: HS 578T (breast)
# Method: as §1, §2
# [3] = tested on: K-562 (leukemia cell line)
# Method: as §1, §2
# UACC-62 (melanoma) = tested on: UACC-62 (melanoma)
# Method: as §1, §2
# HCC-2998 (colon) = tested on: HCC-2998 (colon)
# Method: as §1, §2
# SNB-19 (CNS) = tested on: SNB-19 (CNS)
# Method: as §1, §2
# ACHN (renal) = tested on: ACHN (renal)
# Method: as §1, §2
# SNB-75 (CNS) = tested on: SNB-75 (CNS)
# Method: as §1, §2
# SK-MEL-2 (melanoma) = tested on: SK-MEL-2 (melanoma)
# Method: as §1, §2
# SK-OV-3 (ovarian) = tested on: SK-OV-3 (ovarian)
# Method: as §1, §2
# NCI/ADR-RES (ovarian) = tested on: NCI/ADR-RES (ovarian)
# Method: as §1, §2
# [4] = tested on: NCI-H460 (non-small cell lung)
# Method: as §1, §2
# OVCAR-5 (ovarian) = tested on: OVCAR-5 (ovarian)
# Method: as §1, §2
# [5] = tested on: HOP-92 (non-small cell lung)
# Method: as §1, §2
# TK-10 (renal) = tested on: TK-10 (renal)
# Method: as §1, §2
# KM12 (colon) = tested on: KM12 (colon)
# Method: as §1, §2
# BT-549 (breast) = tested on: BT-549 (breast)
# Method: as §1, §2
# COLO 205 (colon) = tested on: COLO 205 (colon)
# Method: as §1, §2
# [6] = tested on: NCI-H23 (non-small cell lung)
# Method: as §1, §2
# SN12C (renal) = tested on: SN12C (renal)
# Method: as §1, §2
# HCT-15 (colon) = tested on: HCT-15 (colon)
# Method: as §1, §2
# [7] = tested on: HOP-62 (non-small cell lung)
# Method: as §1, §2
# OVCAR-3 (ovarian) = tested on: OVCAR-3 (ovarian)
# Method: as §1, §2
# UACC-257 (melanoma) = tested on: UACC-257 (melanoma)
# Method: as §1, §2
# SF-539 (CNS) = tested on: SF-539 (CNS)
# Method: as §1, §2
# M14 (melanoma) = tested on: M14 (melanoma)
# Method: as §1, §2
# MALME-3M (melanoma) = conditions: MALME-3M
# Method: as §1, §2
# [8] = tested on: EKVX (non-small cell lung)
# Method: as §1, §2
# [9] = 48 h exposure, SRB, read-out: GI50
smiles,measurement,setting,value
"COc1ccc(-c2cn(-c3cccc(C(=O)/C=C/c4cc(OC)c(OC)c(OC)c4)c3)c(=O)[nH]2)cc1 [5b, 4-(4-methoxyphenyl)-1-3-[(E)-3-(3,4,5-trimethoxyphenyl)-2-propenoyl]phenyl-2,3-dihydro-1H-2-imidazolone]",pGI50 (-log of molar concentration causing 50% inhibition of net cell growth),MDA-MB-231/ATCC (breast),5.26
same,GI50,MDA-MB-231/ATCC (breast); [9],5480 nM
same,pGI50 (-log of molar concentration causing 50% inhibition of net cell growth),[1],4.45
same,GI50,[1]; [9],35200 nM
same,pGI50 (-log of molar concentration causing 50% inhibition of net cell growth),TD-47D (breast),5.42
same,GI50,TD-47D (breast); [9],3840 nM
same,pGI50 (-log of molar concentration causing 50% inhibition of net cell growth),SF-268 (CNS),5.49
same,GI50,SF-268 (CNS); [9],3210 nM
same,pGI50 (-log of molar concentration causing 50% inhibition of net cell growth),OVCAR-8 (ovarian),5.60
same,GI50,OVCAR-8 (ovarian); [9],2530 nM
same,pGI50 (-log of molar concentration causing 50% inhibition of net cell growth),LOX IMVI (melanoma),6.14
same,GI50,LOX IMVI (melanoma); [9],720 nM
same,pGI50 (-log of molar concentration causing 50% inhibition of net cell growth),[2],5.73
same,GI50,[2]; [9],1850 nM
same,pGI50 (-log of molar concentration causing 50% inhibition of net cell growth),CAKI-1 (renal),5.52
same,GI50,CAKI-1 (renal); [9],3050 nM
same,pGI50 (-log of molar concentration causing 50% inhibition of net cell growth),HT29 (colon),5.89
same,GI50,HT29 (colon); [9],1280 nM
same,pGI50 (-log of molar concentration causing 50% inhibition of net cell growth),HS 578T (breast),5.47
same,GI50,HS 578T (breast); [9],3390 nM
same,pGI50 (-log of molar concentration causing 50% inhibition of net cell growth),[3],5.90
same,GI50,[3]; [9],1270 nM
same,pGI50 (-log of molar concentration causing 50% inhibition of net cell growth),UACC-62 (melanoma),5.69
same,GI50,UACC-62 (melanoma); [9],2060 nM
same,pGI50 (-log of molar concentration causing 50% inhibition of net cell growth),HCC-2998 (colon),5.79
same,GI50,HCC-2998 (colon); [9],1640 nM
same,pGI50 (-log of molar concentration causing 50% inhibition of net cell growth),SNB-19 (CNS),5.36
same,GI50,SNB-19 (CNS); [9],4380 nM
same,pGI50 (-log of molar concentration causing 50% inhibition of net cell growth),ACHN (renal),5.74
same,GI50,ACHN (renal); [9],1820 nM
same,pGI50 (-log of molar concentration causing 50% inhibition of net cell growth),SNB-75 (CNS),5.34
same,GI50,SNB-75 (CNS); [9],4590 nM
same,pGI50 (-log of molar concentration causing 50% inhibition of net cell growth),SK-MEL-2 (melanoma),5.58
same,GI50,SK-MEL-2 (melanoma); [9],2630 nM
same,pGI50 (-log of molar concentration causing 50% inhibition of net cell growth),SK-OV-3 (ovarian),5.34
same,GI50,SK-OV-3 (ovarian); [9],4600 nM
same,pGI50 (-log of molar concentration causing 50% inhibition of net cell growth),NCI/ADR-RES (ovarian); NCI/ADR-RES,5.77
same,GI50,"NCI/ADR-RES (ovarian); NCl/ADR-RES, 48 h exposure, SRB, read-out: GI50",1700 nM
same,pGI50 (-log of molar concentration causing 50% inhibition of net cell growth),[4],5.81
same,GI50,[4]; [9],1560 nM
same,pGI50 (-log of molar concentration causing 50% inhibition of net cell growth),OVCAR-5 (ovarian),5.58
same,GI50,OVCAR-5 (ovarian); [9],2640 nM
same,pGI50 (-log of molar concentration causing 50% inhibition of net cell growth),[5],4.83
same,GI50,[5]; [9],14900 nM
same,pGI50 (-log of molar concentration causing 50% inhibition of net cell growth),TK-10 (renal),5.52
same,GI50,TK-10 (renal); [9],3040 nM
same,pGI50 (-log of molar concentration causing 50% inhibition of net cell growth),KM12 (colon),5.85
same,GI50,KM12 (colon); [9],1420 nM
same,pGI50 (-log of molar concentration causing 50% inhibition of net cell growth),BT-549 (breast),5.59
same,GI50,BT-549 (breast); [9],2590 nM
same,pGI50 (-log of molar concentration causing 50% inhibition of net cell growth),COLO 205 (colon); COLO205,5.74
same,GI50,"COLO 205 (colon); COLO 205, 48 h exposure, SRB, read-out: GI50",1840 nM
same,pGI50 (-log of molar concentration causing 50% inhibition of net cell growth),[6],5.79
same,GI50,[6]; [9],1630 nM
same,pGI50 (-log of molar concentration causing 50% inhibition of net cell growth),SN12C (renal); SN 12C,5.46
same,GI50,"SN12C (renal); SN12C, 48 h exposure, SRB, read-out: GI50",3500 nM
same,pGI50 (-log of molar concentration causing 50% inhibition of net cell growth),HCT-15 (colon),5.86
same,GI50,HCT-15 (colon); [9],1380 nM
same,pGI50 (-log of molar concentration causing 50% inhibition of net cell growth),[7],5.23
same,GI50,[7]; [9],5910 nM
same,pGI50 (-log of molar concentration causing 50% inhibition of net cell growth),OVCAR-3 (ovarian),5.75
same,GI50,OVCAR-3 (ovarian); [9],1780 nM
same,pGI50 (-log of molar concentration causing 50% inhibition of net cell growth),UACC-257 (melanoma),5.52
same,GI50,UACC-257 (melanoma); [9],3040 nM
same,pGI50 (-log of molar concentration causing 50% inhibition of net cell growth),SF-539 (CNS),5.70
same,GI50,SF-539 (CNS); [9],2000 nM
same,pGI50 (-log of molar concentration causing 50% inhibition of net cell growth),M14 (melanoma),5.73
same,GI50,M14 (melanoma); [9],1850 nM
same,pGI50 (-log of molar concentration causing 50% inhibition of net cell growth),MALME-3M (melanoma),5.75
same,GI50,MALME-3M (melanoma); [9],1790 nM
same,pGI50 (-log of molar concentration causing 50% inhibition of net cell growth),[8],5.38
same,GI50,[8]; [9],4200 nM
